Data published in paper PMC12663368 (Nature Communications, 2025).

Experiments:
Type in all cases: cell-based
[1] = system: SARS-CoV-2 Wuhan-like Lineage A (Mpro Δ23G/T45I); conditions: for IC50: read-out: Mean of IC50 values ± SD
[2] = system: SARS-CoV-2 Wuhan-like Lineage B (Mpro M49L)
[3] = system: SARS-CoV-2 BA.5 Lineage C (Mpro S144A); conditions: for IC50: read-out: Mean of IC50 values ± SD
[4] = system: SARS-CoV-2 BA.5 Lineage D (Mpro P252L)
[5] = read-out: Mean of IC50 values ± SD

Molecule	Fold-change relative to wild-type [1] [fold]	IC50 [1] [µM]	Resistance level (class by IC50 fold-change) [2]	Fold-change relative to wild-type [3] [fold]	IC50 [3] [µM]	Fold-change relative to wild-type [4] [fold]	IC50 [4, 5] [µM]	Fold-change relative to wild-type [2] [fold]	IC50 [2, 5] [µM]	Resistance level (class by IC50 fold-change) [4]
CC(C)(C)[C@H](NC(=O)C(F)(F)F)C(=O)N1C[C@H]2[C@@H]([C@H]1C(=O)N[C@H](C#N)C[C@@H]1CCNC1=O)C2(C)C [nirmatrelvir]	0.18	1.4 ± 0.1	no meaningful shift	7.60	37 ± 0.9	3.83	18.6 ± 0.48			
remdesivir						3.41				
Cn1cnc(Cn2c(=O)[nH]/c(=N\c3cc4cn(C)nc4cc3Cl)n(Cc3cc(F)c(F)cc3F)c2=O)n1 [ensitrelvir]	32.06	16.7 ± 2.29		28.84	25.4 ± 8.74			60.08	31.2 ± 1.06	no meaningful shift
